Assay: Shrinkage Temperature Assay (differential scanning calorimetric analysis)
Assay type: physicochemical
Settings: bovine pericardium crosslinked overnight at room temperature; THPP 10 mg/mL in PBS or 0.25% glutaraldehyde
Description: Tissue Crosslinking: Bovine pericardium tissue was cut into ˜1 cm^2 samples and rinsed in ˜1 L ultrafiltered H2O for about 30 min with stirring. The samples were then rinsed in PBS for an additional 30 min at room temperature with shaking.
Samples were left in solution overnight at room temperature. Samples were then rinsed 5×30 min in ˜200 mL PBS each rinse, and then either tested immediately or stored in 0.01 M HEPES with 40% isopropyl alcohol until testing.
Shrinkage Temperature Assay: The shrinkage temperature of some crosslinked samples was determined using standard differential scanning calorimetric analysis. Briefly, 2-10 mg of tissue was heated at 10° C. increments under nitrogen. Typically, an endotherm is seen in the range of 60° C.-90° C., and this endotherm is attributed to a shrinkage transition.

O=CCCCC=O [Glutaraldehyde, glutaraldehyde]
Shrink Onset Temperature: 86.04 °C
